# Results: patent US8772509B2, “Indole compounds as positive allosteric modulators of the muscarinic receptor” (Vanderbilt University, priority 2010, dated 2014)
# Target: T1, mAChR M1 (UniProt P08482)
# T1 sequence (P08482 1-460): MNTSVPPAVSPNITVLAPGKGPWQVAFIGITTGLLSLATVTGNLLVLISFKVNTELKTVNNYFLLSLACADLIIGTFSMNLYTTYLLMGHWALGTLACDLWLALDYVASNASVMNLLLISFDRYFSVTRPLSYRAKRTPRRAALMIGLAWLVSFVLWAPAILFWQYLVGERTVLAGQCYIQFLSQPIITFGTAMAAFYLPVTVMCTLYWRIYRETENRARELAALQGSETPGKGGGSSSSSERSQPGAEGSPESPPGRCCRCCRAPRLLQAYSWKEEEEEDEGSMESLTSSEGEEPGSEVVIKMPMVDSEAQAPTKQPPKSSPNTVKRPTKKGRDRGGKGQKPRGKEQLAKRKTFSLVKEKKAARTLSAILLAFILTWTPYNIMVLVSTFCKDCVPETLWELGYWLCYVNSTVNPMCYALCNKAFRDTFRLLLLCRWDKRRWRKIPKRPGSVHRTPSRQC
# Assay: mAChR M1 cell-based functional assay (calcium mobilization, Fluo-4, FDSS)
# Conditions: for EC50: positive allosteric modulation of EC20 acetylcholine response, CHO-K1 cells expressing mAChR M1, read-out: Potency (EC50); for Efficacy (% ACh maximum at 30 μM): maximal calcium flux response from curve fit or response at 30 μM compound, as % of the EC80 ACh response
# Method: Chinese hamster ovary (CHO-K1) cells stably expressing rat (r)M1 were purchased from the American Type Culture Collection and cultured according to their indicated protocol. […] To make stable rM2, hM2, rM3, hM4, and rM4 cell lines for use in calcium mobilization assays, these cells also were stably transfected with a chimeric G-protein (Gqi5) (provided by B. R. Conklin, University of California, San Francisco) using Lipofectamine 2000. rM1, hM1, rM3, hM3, rM5, and hM5 cells were grown in Ham's F-12 medium containing 10% heat-inactivated fetal bovine serum (FBS), 20 mM HEPES, and 50 μg/mL G418 sulfate. rM2-Gqi5, hM2-Gqi5, and hM4-Gqi5 cells were grown in the same medium also containing 500 μg/mL Hygromycin B. Stable rM4-Gqi5 cells were grown in DMEM containing 10% heat-inactivated FBS, 20 mM HEPES, 400 μg/mL G418 sulfate, and 500 μg/mL Hygromycin B.
# For high throughput measurement of agonist-evoked increases in intracellular calcium, CHO-K1 cells stably expressing muscarinic receptors were plated in growth medium lacking G418 and hygromycin at 15,000 cells/20 μL/well in Greiner 384-well black-walled, tissue culture (TC)-treated, clear-bottom plates (VWR). Cells were incubated overnight at 37° C. and 5% CO2. […] Compound master plates were formatted in an 11 point CRC format (1:3 dilutions) in 100% DMSO with a starting concentration of 10 mM using the BRAVO liquid handler (Agilent). Test compound CRCs were then transferred to daughter plates (240 nL) using the Echo acoustic plate reformatter (Labcyte, Sunnyvale, Calif.) and then diluted into assay buffer (40 μL) to a 2× stock using a Thermo Fisher Combi (Thermo Fisher Scientific, Waltham, Mass.).
# Calcium flux was measured using the Functional Drug Screening System (FDSS) 6000 (Hamamatsu Corporation, Tokyo, Japan) as an increase in the fluorescent static ratio. Compounds were applied to cells (20 μL, 2×) using the automated system of the FDSS 6000 at 4 s into the 300 s protocol and the data were collected at 1 Hz. […] Agonist activity was analyzed as a concentration-dependent increase in calcium mobilization upon compound addition. Positive allosteric modulator activity was analyzed as a concentration-dependent increase in the EC20 acetylcholine response. Antagonist activity was analyzed as a concentration-dependent decrease in the EC80 acetylcholine response. Concentration-response curves were generated using a four-parameter logistical equation in XLfit curve fitting software (IDBS, Bridgewater, N.J.) for Excel (Microsoft, Redmond, Wash.) or Prism (GraphPad Software, Inc., San Diego, Calif.).
# The calcium mobilization assay was also used to determine “efficacy”. In the context of the assays carried out for the data in Table I, “efficacy” (% ACh at 30 μM) is defined as the maximal response in the calcium flux as determined by the sigmoidal curve fit of the concentration response curve, or in the absence of an acceptable curve fit, the response recorded at 30 μM test compound, stated as a percentage of the response elicited by a concentration of Ach that induces approximately 80% of a maximal (i.e. saturating) ACh response.
Compound,EC50 [µM],Efficacy (% ACh maximum at 30 μM) [%]
"Cc1cc(NC(=O)CS(=O)(=O)c2cn(Cc3cccc(F)c3)c3ccccc23)no1 [compound 28, 2-((1-(3-fluorobenzyl)-1H-indol-3-yl)sulfonyl)-N-(5-methylisoxazol-3-yl)acetamide]",5.22,
"Cc1cc(NC(=O)CS(=O)(=O)c2cn(Cc3ccc(F)c(-c4cc[nH]n4)c3)c3ccccc23)no1 [compound 58, 2-(1-{[4-fluoro-3-(1H-pyrazol-3-yl)phenyl]methyl}-1H-indole-3-sulfonyl)-N-(5-methyl-1,2-oxazol-3-yl)acetamide]",> 10,
"O=C(CS(=O)(=O)c1cn(Cc2cccc(Br)c2)c2cc(F)cc(F)c12)Nc1ccccn1 [compound 6, 2-((1-(3-bromobenzyl)-4,6-difluoro-1H-indol-3-yl)sulfonyl)-N-(pyridin-2-yl)acetamide]",2.4,62
"Cc1cc(NC(=O)CS(=O)(=O)c2cn(Cc3cccc(-c4ccccc4)c3)c3ccccc23)no1 [compound 56, N-(5-methyl-1,2-oxazol-3-yl)-2-{1-[(3-phenylphenyl)methyl]-1H-indole-3-sulfonyl}acetamide]",> 10,
"Nc1cccc(Cn2cc(S(=O)(=O)CC(=O)Nc3ccccn3)c3c(F)cc(F)cc32)c1 [compound 31, 2-((1-(3-aminobenzyl)-4,6-difluoro-1H-indol-3-yl)sulfonyl)-N-(pyridin-2-yl)acetamide]",5.6,69
"Cc1cc(NC(=O)C(Cc2ccc(OC(F)(F)F)cc2)S(=O)(=O)c2cn(Cc3ccc(OC(F)(F)F)cc3)c3ccccc23)no1 (centres unmarked) [compound 74, N-(5-methyl-1,2-oxazol-3-yl)-3-[4-(trifluoromethoxy)phenyl]-2-(1-{[4-(trifluoromethoxy)phenyl]methyl}-1H-indole-3-sulfonyl)propanamide]",> 10,
"O=C(CS(=O)(=O)c1cn(Cc2cccc(-c3ccncc3)c2)c2cc(F)cc(F)c12)Nc1ccccn1 [compound 14, 2-((4,6-difluoro-1-(3-(pyridin-4-yl)benzyl)-1H-indol-3-yl)sulfonyl)-N-(pyridin-2-yl)acetamide]",2.9,55
"O=C(CS(=O)(=O)c1cn(Cc2cccc(-c3ccc(F)nc3)c2)c2cc(F)cc(F)c12)Nc1ccccn1 [compound 27, 2-((4,6-difluoro-1-(3-(6-fluoropyridin-3-yl)benzyl)-1H-indol-3-yl)sulfonyl)-N-(pyridin-2-yl)acetamide]",5.2,42
"Cc1cc(NC(=O)CSc2cn(Cc3ccccc3Cl)c3ccccc23)no1 [compound 42, 2-({1-[(2-chlorophenyl)methyl]-1H-indol-3-yl}sulfanyl)-N-(5-methyl-1,2-oxazol-3-yl)acetamide]",> 10,
"O=C(CS(=O)(=O)c1cn(Cc2cccc(Br)c2)c2cc(F)cc(F)c12)NCc1ccccn1 [compound 39, 2-((1-(3-bromobenzyl)-4,6-difluoro-1H-indol-3-yl)sulfonyl)-N-(pyridin-2-ylmethyl)acetamide]",> 10,34
"Cc1cc(NC(=O)CS(=O)(=O)c2cn(Cc3cccc(-n4ccnn4)c3)c3cc(F)cc(F)c23)no1 [compound 3, 2-((1-(3-(1H-1,2,3-triazol-1-yl)benzyl)-4,6-difluoro-1H-indol-3-yl)sulfonyl)-N-(5-methylisoxazol-3-yl)acetamide]",1.5,72
"O=C(CS(=O)(=O)c1cn(Cc2ccccc2)c2cc(F)cc(F)c12)Nc1ccccn1 [compound 1, 2-((1-benzyl-4,6-difluoro-1H-indol-3-yl)sulfonyl)-N-(pyridin-2-yl)acetamide]",0.99,59
"Cc1cc(NC(=O)CS(=O)(=O)c2cn(Cc3ccc(F)c(Br)c3)c3ccccc23)no1 [compound 61, 2-{1-[(3-bromo-4-fluorophenyl)methyl]-1H-indole-3-sulfonyl}-N-(5-methyl-1,2-oxazol-3-yl)acetamide]",> 10,
"O=C(CS(=O)(=O)c1cn(Cc2cccc(Br)c2)c2cc(F)cc(F)c12)Nc1nc2ccccc2o1 [compound 9, N-(benzo[d]oxazol-2-yl)-2-((1-(3-bromobenzyl)-4,6-difluoro-1H-indol-3-yl)sulfonyl)acetamide]",2.5,44
"O=C(CS(=O)(=O)c1cn(Cc2cccc(Br)c2)c2cc(F)cc(F)c12)Nc1cccnn1 [compound 7, 2-((1-(3-bromobenzyl)-4,6-difluoro-1H-indol-3-yl)sulfonyl)-N-(pyridazin-3-yl)acetamide]",2.4,63
"Cc1cc(NC(=O)CS(=O)(=O)c2cn(Cc3cccc(-c4ccncc4)c3)c3cc(F)cc(F)c23)no1 [compound 2, 2-((4,6-difluoro-1-(3-(pyridin-4-yl)benzyl)-1H-indol-3-yl)sulfonyl)-N-(5-methylisoxazol-3-yl)acetamide]",1.2,66
"COc1ncc(-c2cccc(Cn3cc(S(=O)(=O)CC(=O)Nc4ccccn4)c4c(F)cc(F)cc43)c2)cn1 [compound 18, 2-((4,6-difluoro-1-(3-(2-methoxypyrimidin-5-yl)benzyl)-1H-indol-3-yl)sulfonyl)-N-(pyridin-2-yl)acetamide]",3.4,50
"COc1ccccc1Cn1cc(S(=O)(=O)CC(=O)Nc2cc(C)on2)c2ccccc21 [compound 47, 2-{1-[(2-methoxyphenyl)methyl]-1H-indole-3-sulfonyl}-N-(5-methyl-1,2-oxazol-3-yl)acetamide]",> 10,
"O=C(CS(=O)(=O)c1cn(Cc2cccc(-c3cccnc3Cl)c2)c2cc(F)cc(F)c12)Nc1ccccn1 [compound 11, 2-((1-(3-(2-chloropyridin-3-yl)benzyl)-4,6-difluoro-1H-indol-3-yl)sulfonyl)-N-(pyridin-2-yl)acetamide]",2.7,43
"Cc1cc(NC(=O)CS(=O)(=O)c2cn(Cc3ccc(Cl)c(Cl)c3)c3ccccc23)no1 [compound 55, 2-{1-[(3,4-dichlorophenyl)methyl]-1H-indole-3-sulfonyl}-N-(5-methyl-1,2-oxazol-3-yl)acetamide]",> 10,
"Cc1cc(NC(=O)CS(=O)(=O)c2cn(Cc3cccc(-c4cn[nH]c4)c3)c3cc(F)cc(F)c23)no1 [compound 4, 2-((1-(3-(1H-pyrazol-4-yl)benzyl)-4,6-difluoro-1H-indol-3-yl)sulfonyl)-N-(5-methylisoxazol-3-yl)acetamide]",1.85,102
"O=C(CS(=O)(=O)c1cn(Cc2cccc(Br)c2)c2cc(F)cc(F)c12)Nc1cncnc1 [compound 37, 2-((1-(3-bromobenzyl)-4,6-difluoro-1H-indol-3-yl)sulfonyl)-N-(pyrimidin-5-yl)acetamide]",> 10,48
"Cc1cc(NC(=O)CS(=O)(=O)c2cn(Cc3ccc(C(F)(F)F)cc3)c3ccccc23)no1 [compound 53, N-(5-methyl-1,2-oxazol-3-yl)-2-(1-{[4-(trifluoromethyl)phenyl]methyl}-1H-indole-3-sulfonyl)acetamide]",> 10,
"Cc1cc(NC(=O)C(C)S(=O)(=O)c2cn(Cc3cc(Br)ccc3F)c3ccccc23)no1 (centres unmarked) [compound 63, 2-{1-[(5-bromo-2-fluorophenyl)methyl]-1H-indole-3-sulfonyl}-N-(5-methyl-1,2-oxazol-3-yl)propanamide]",> 10,
